ChEMBL document CHEMBL4004864, “Synthetic analogs of rhamnolipids modulate structured biofilms formed by rhamnolipid-nonproducing mutant of Pseudomonas aeruginosa” (Bioorg Med Chem, 2017)
Calls of active or inactive are those of the source. No cut-off for these calls is given here.

Assays:
[1] = system: Pseudomonas aeruginosa; assay: Effect on biofilm formation in Pseudomonas aeruginosa PW6886 harboring rhlA-E08::ISphoA/hah mutant at 10 to 340 uM after 24 hrs under non-shaking condition by crystal-violet staining based assay; type: functional
[2] = system: Pseudomonas aeruginosa; assay: (§1) Antibiofilm activity against Pseudomonas aeruginosa PW6886 harboring rhlA-E08::ISphoA/hah mutant preformed biofilms assessed as reduction in biofilm bacterial count at 20 to 340 uM preincubated for 24 hrs under non-shaking condition followed by second incubation for 1 hr after compound washout and subsequent compound addition and measured after 1 hr incubation under non-shaking condition by crystal-violet staining based assay; type: functional
[3] = system: Pseudomonas aeruginosa; assay: Induction of swarming motility of Pseudomonas aeruginosa PW6886 harboring rhlA-E08::ISphoA/hah mutant at 5 to 100 uM after 24 hrs; type: functional
[4] = system: Pseudomonas aeruginosa; assay: Induction of swarming motility of wild-type Pseudomonas aeruginosa PAO1 at 5 to 100 uM after 24 hrs; type: functional
[5] = system: Pseudomonas aeruginosa; assay: Induction of biofilm formation in Pseudomonas aeruginosa PW6886 harboring rhlA-E08::ISphoA/hah mutant expressing EGFP at 20 to 340 uM after 48 hrs under shaking condition by confocal laser scanning microscopy; type: functional
[6] = system: Pseudomonas aeruginosa; assay: Inhibition of biofilm formation in Pseudomonas aeruginosa PW6886 harboring rhlA-E08::ISphoA/hah mutant expressing EGFP at 20 to 340 uM after 48 hrs under shaking condition by confocal laser scanning microscopy; type: functional
[7] = system: Pseudomonas aeruginosa; assay: Bactericidal activity against Pseudomonas aeruginosa PW6886 harboring rhlA-E08::ISphoA/hah mutant at 20 to 340 uM under shaking condition
[8] = system: Pseudomonas aeruginosa; assay: Induction of biofilm formation in Pseudomonas aeruginosa PW6886 harboring rhlA-E08::ISphoA/hah mutant at 20 to 170 uM after 24 hrs under non-shaking condition by crystal-violet staining based assay; type: functional
[9] = system: Pseudomonas aeruginosa; assay: as §1, with “40” for “340”; type: functional
[10] = system: Pseudomonas aeruginosa; assay: Induction of tendril formation in Pseudomonas aeruginosa PW6886 harboring rhlA-E08::ISphoA/hah mutant at 5 to 100 uM after 24 hrs; type: functional
[11] = system: Pseudomonas aeruginosa; assay: Induction of swarming motility of wild-type Pseudomonas aeruginosa PAO1 at 50 uM after 24 hrs; type: functional
[12] = system: Pseudomonas aeruginosa; assay: Induction of tendril formation in Pseudomonas aeruginosa PAO1 at > 85 uM after 24 hrs; type: functional
[13] = system: Pseudomonas aeruginosa; assay: Induction of structured biofilm formation in eGFP-fused Pseudomonas aeruginosa PW6886 harboring rhlA-E08::ISphoA/hah mutant at 20 uM after 24 hrs under shaking condition by confocal laser scanning microscopy; type: functional
[14] = system: Pseudomonas aeruginosa; assay: Inhibition of biofilm formation in eGFP-fused Pseudomonas aeruginosa PW6886 harboring rhlA-E08::ISphoA/hah mutant at 340 uM after 24 hrs under shaking condition by confocal laser scanning microscopy; type: functional
[15] = system: Pseudomonas aeruginosa; assay: Induction of biofilm formation in eGFP-fused Pseudomonas aeruginosa PW6886 harboring rhlA-E08::ISphoA/hah mutant at 20 uM after 48 hrs under shaking condition by confocal laser scanning microscopy; type: functional
[16] = system: Pseudomonas aeruginosa; assay: Inhibition of biofilm formation in eGFP-fused Pseudomonas aeruginosa PW6886 harboring rhlA-E08::ISphoA/hah mutant at 340 uM after 48 hrs under shaking condition by confocal laser scanning microscopy; type: functional
[17] = system: Pseudomonas aeruginosa; assay: Induction of biofilm formation in eGFP-fused Pseudomonas aeruginosa PW6886 harboring rhlA-E08::ISphoA/hah mutant at 20 to 40 uM by COMSTAT based quantification relative to control; type: functional
[18] = system: Pseudomonas aeruginosa; assay: Inhibition of biofilm formation in eGFP-fused Pseudomonas aeruginosa PW6886 harboring rhlA-E08::ISphoA/hah mutant at 340 uM by COMSTAT based quantification relative to control; type: functional
[19] = system: Pseudomonas aeruginosa; assay: as §1, with “at” for “at 20 to”; type: functional
[20] = system: Pseudomonas aeruginosa; assay: Induction of biofilm formation in Pseudomonas aeruginosa PW6886 harboring rhlA-E08::ISphoA/hah mutant expressing EGFP at 40 uM after 24 hrs under non-shaking condition by confocal laser scanning microscopy; type: functional
[21] = system: Pseudomonas aeruginosa; assay: Inhibition of biofilm formation in Pseudomonas aeruginosa PW6886 harboring rhlA-E08::ISphoA/hah mutant at 340 uM under non-shaking condition after 24 hrs by crystal-violet staining based assay; type: functional
[22] = system: Pseudomonas aeruginosa; assay: Induction of biofilm formation in Pseudomonas aeruginosa PW6886 harboring rhlA-E08::ISphoA/hah mutant expressing EGFP assessed as reduction in exopolymers covering the bottom of well at 20 to 85 uM after 24 hrs under shaking condition by confocal laser scanning microscopy; type: functional

Compound: CCCOCCCCCCCCO[C@@H]1O[C@H](CO)[C@@H](O[C@H]2O[C@H](CO)[C@@H](O)[C@H](O)[C@H]2O)[C@H](O)[C@H]1O
- Activity [1]: inactive
- Activity [2]: inactive
- Activity [3]: inactive
- Activity [4]: inactive
- Activity [5]: inactive
- inhibition [6]: inactive

Compound: CCCCCCOCCCCCO[C@@H]1O[C@H](CO)[C@@H](O[C@H]2O[C@H](CO)[C@@H](O)[C@H](O)[C@H]2O)[C@H](O)[C@H]1O
- Activity [1]: inactive
- Activity [2]: inactive
- Activity [7]: Non-Toxic
- Activity [3]: inactive
- Activity [4]: inactive
- Activity [5]: inactive
- inhibition [6]: inactive

Compound: CCCCCCCCCCCCO[C@@H]1O[C@H](CO)[C@@H](O[C@H]2O[C@H](CO)[C@@H](O)[C@H](O)[C@H]2O)[C@H](O)[C@H]1O
- Activity [8]: Active
- Activity [9]: inactive
- Activity [7]: Non-Toxic
- Activity [3]: Active
- Activity [10]: Active
- Activity [11]: Active
- Activity [12]: Active
- Activity [13]: Active
- inhibition [14]: Active
- Activity [15]: inactive
- inhibition [16]: inactive
- Activity [17]: 10 - 60%
- inhibition at 340 µM [18]: 80%
- Activity [19]: Active

Compound: O=C(c1ccccc1)c1ccc(COCCCCCCCCCCO[C@@H]2O[C@H](CO)[C@@H](O[C@H]3O[C@H](CO)[C@@H](O)[C@H](O)[C@H]3O)[C@H](O)[C@H]2O)cc1
- Activity [8]: Active
- Activity [9]: inactive
- Activity [7]: Non-Toxic
- Activity [13]: Active
- inhibition [14]: Active
- Activity [15]: Active
- inhibition [16]: Active
- Activity [17]: 10 - 60%
- inhibition at 340 µM [18]: 80%
- Activity [20]: Active
- Activity [19]: Active

Compound: CC(C)CCCC(C)CCCC(C)CCO[C@@H]1O[C@H](CO)[C@@H](O[C@H]2O[C@H](CO)[C@@H](O)[C@H](O)[C@H]2O)[C@H](O)[C@H]1O (some centres not stated)
- Activity [8]: Active
- inhibition [21]: Active
- Activity [9]: inactive
- Activity [7]: Non-Toxic
- Activity [13]: Active
- inhibition [14]: Active
- Activity [15]: Active
- inhibition [16]: Active
- Activity [17]: 10 - 60%
- inhibition at 340 µM [18]: 80%
- Activity [22]: Active
- Activity [20]: Active
- Activity [19]: Active

Compound: CC(C)CCCC(C)CCCC(C)CCO[C@@H]1O[C@H](CO)[C@@H](O[C@@H]2O[C@H](CO)[C@@H](O)[C@H](O)[C@H]2O)[C@H](O)[C@H]1O (some centres not stated)
- Activity [8]: Active
- inhibition [21]: Active
- Activity [9]: inactive
- Activity [13]: Active
- inhibition [14]: Active
- Activity [15]: Active
- inhibition [16]: Active
- Activity [17]: 10 - 60%
- inhibition at 340 µM [18]: 80%
- Activity [20]: Active
- Activity [19]: Active
